Legend:
[1] = test system: patients with Alzheimer's type dementia; assay: Case reports, Mild Cognitive Impairment (MCI) and Dementia (Example 1); assay type: in vivo, human
Excerpt: Patient 1A was an elderly person with history of impairment of cognitive function. Presumptive diagnosis of possible dementia of Alzheimers type.
Patient 1B was an elderly retired person with a 7 year history of Alzheimer's type dementia treated with the cholinesterase inhibitor Donepezil. […] Their cognitive function has gradually deteriorated since this time. […] Their reading was more fluent being better able to follow the meaning of the text. There was also improvement in their Stroop Test particularly in part three, the more cognitively demanding where their accuracy improved from 50 to 90%.

[2] = test system: patients with visual fatigue / impaired visual acuity; assay: Case reports, Visual fatigue / visual acuity (Example 5); assay type: in vivo, human; conditions: for three-dimensional delicate work (visual acuity and depth perception): Patient 5d
Excerpt: Adult with a history of ADHD stabilised on a combination of a psychostimulant and sodium valproate.
Adult diagnosed with ADHD and stable on treatment with psychostimulants. […] Previously always relied on glasses to read because of an astigmatism.
Adult previously diagnosed with ADHD and no longer taking stimulant medication.

[3] = test system: patients with closed head injury; assay: Case reports, Acquired Brain Injury (Example 4); assay type: in vivo, human
[4] = test system: individuals with symptoms of ADHD
[5] = test system: patient with tardive dyskinsia; assay: Case report, Tardive Dyskinesia (Example 10); assay type: in vivo, human; conditions: Patient 10A; test dose of 1 mg
Excerpt: Patient 10A was an elderly person with a history of post-dramatic stress disorder treated with long-term antipsychotic medication.

[6] = Patient 4A, test dose less than 3 mg via buccal mucosa
[7] = Patient 4B, test sublingual dose 1 mg

## O=C1NC(=O)C(c2ccccc2)(c2ccccc2)N1 [phenyloin, 5,5-diphenylhydantoin]
[1]; Patient 1A, possible dementia of Alzheimers type, 25 mg
  cognitive function, clinical response: some improvement but benefit was lost on continuation of this dose
[1]; Patient 1A, 3 mg daily
  duration of sustained benefit: over 24 months
[1]; Patient 1A, daily dose of 3 mg in divided doses orally
  cognitive function, clinical response: significant improvement
[1]; Patient 1A, withdrawal after 25 mg
  cognitive function after withdrawal of medication: transient improvement followed by a return to pre-phenyloin functioning
[1]; Patient 1B (treated with Donepezil), test dose 1 mg sublingual
  ability to read a standard text: significant improvement in their ability to read a standard text
[1]; Patient 1B, 1 mg sublingual
  time to improvement in reading after dose: ≤ 10 min
[1]; Patient 1B, 1 mg sublingual single dose
  functioning the following day after single dose: more able to initiate activities
[1]; Patient 1B, 1 mg sublingual, improved from 50
  Stroop Test part three accuracy after dose: 90%
[2]; Patient 5a, ADHD on psychostimulant and sodium valproate, 4 mg added
  overall functioning: further improvement in their overall functioning
[2]; Patient 5a, 4 mg added
  visual fatigue: visual fatigue no longer occurred
[2]; Patient 5b, ADHD on psychostimulants, 2 mg daily
  function: significant improvement in function
[2]; Patient 5b, 2 mg daily
  visual acuity: apparent improvement in their visual acuity
[2]; Patient 5c, 1 mg
  visual acuity whilst reading: immediate and unexpected improvement in visual acuity
[2]; Patient 5e, low dose
  judging distances when playing lawn bowls: improvement in their ability to accurately identify distances
[2]; Patient 5f, low dose
  visual judgement when playing soccer: improvement in visual judgement
[2]; 1 mg
  three-dimensional delicate work (visual acuity and depth perception): most consistent improvement
[2]; 2 mg
  three-dimensional delicate work (visual acuity and depth perception): improved
[3]; Patient 4A, dose increased, second day
  clinical response to increased dose, following day: no dramatic improvement
[3]; Patient 4A, phenyloin ceased, followed by deterioration to pre-phenyloin functioning
  functioning over five days after cessation: gradual improvement in their functioning
[3]; Patient 4A, repeated sublingual dose
  developmental Eye Movement Test and Stroop test: consistent with the improved cognitive functioning
[3]; Patient 4A, same increased dose, third day
  clinical response to repeated dose, third day: noticeable deterioration in their ability to focus and organize their thinking
[3]; [6]
  ability to focus: dramatic and unexpected improvement in their ability to focus
  motor tics and vocalisations: repetitive chanting and hand movements ceased
[3]; Patient 4B, 3 mg
  reading: began reading for the first time in 10 years
[3]; Patient 4B, initial dose of 3 mg
  ability to organise and undertake tasks: unexpected and dramatic improvement in the ability to organise and undertake tasks
[3]; [7]
  effort required for communication: reduction in the effort required for communication
  subjective vision: enhanced clarity of vision
[3]; Patients 4A and 4B, further dose
  irritability and sense of being overwhelmed after a further dose: temporary relief
[3]; both cases (Patients 4A and 4B)
  duration of sustained improvements: over 12 months
[4]; Patient 3A
  duration of improvement on ceasing before deterioration: up to 7 days
  most efficacious dose: 0.1 mg daily
[4]; Patient 3A (on tricyclic antidepressant and dexamphetamine), 30 mg capsule
  ADHD symptoms, clinical response: temporarily associated with improvement in clarity of thoughts and eye contact during conversation
[4]; Patient 3A, lower dose
  clinical response on reintroduction at a lower dose: initial benefit that associated with rapid loss of efficacy
[4]; Patient 3A, phenyloin withdrawn
  functioning after withdrawal: initial improvement then later worsening to the pre-phenyloin functioning
[4]; in vivo
  side effects of higher doses: significant cognitive side effects
[4]; individuals with symptoms of ADHD, higher doses
  efficacy of higher doses: ineffective
[4]; individuals with symptoms of ADHD, ultra low doses
  symptoms of ADHD, clinical response: improvements were noted
[5]
  abnormal facial movements: abnormal facial movements ceased
